Assay results: patent EP4772514A1, “MACROCYCLIC COMPOUNDS, PREPARATION METHOD THEREFOR, AND USE THEREOF” (Genfleet Therapeutics (Shanghai) Inc., priority 2023, dated 2025)
Like-named read-outs stand apart in the source and are kept apart here.

Experiments:
[1] = test system: NCI-H441 cells; test: 3D cell proliferation assay (CellTiter Glo-3D) in NCI-H441 cells; assay type: cell-based; conditions: NCI-H441, human lung cancer cell strain, KRAS G12V mutation, 3D culture, 2% FBS, 5 days, read-out: H441 AP IC50
From the text: MIA PaCa-2 cells were purchased from ATCC, Cat. No. CRL-1420; AsPC-1 cells were purchased from ATCC, Cat. No. CRL-1682; NCI-H441 cells were purchased from ATCC, Cat. No. HTB-174; NCI-H1975 cells were purchased from ATCC, Cat. No. CRL-5908; DMEM medium was purchased from Gibco, Cat. No. 11995-065; RPMI-1640 medium was purchased from Gibco, Cat. No. 11875-093; FBS was purchased from Gibco, Cat. No. 10099-141C; penicillin/streptomycin double-antibiotic solution (PS) was purchased from Gibco, Cat. No. 15140-122; Horse serum was purchased from Gibco, Cat. No. 16050130; trypsin (containing EDTA) was purchased from Gibco, Cat. No. 25200-072; DMSO was purchased from VWRAMRESCO, Cat. No. 0231-500ML; 384-well cell culture plates were purchased from Corning, Cat. No. 3830; white-bottomed, opaque 384-well assay plates were purchased from Corning, Cat. No. 3570; CellTiter Glo-3D kit was purchased from Promega, Cat. No. G9683; cell counter was purchased from CHEMOMETEC, model: NC-200; microplate reader was purchased from PerkinElmer, model: EnVision.
MIA PaCa-2, a human pancreatic cancer cell strain endogenously containing a KRAS^G12Cmutation, was cultured in a complete medium containing DMEM + 10% FBS + 2.5% Horse serum + 1% PS. AsPC-1, a human pancreatic cancer cell strain endogenously containing a KRAS^G12D mutation, was cultured in a complete medium containing RPMI-1640 + 10% FBS + 1% PS. NCI-H441 cells, a human lung cancer cell strain endogenously containing a KRAS^G12V mutation, were cultured in a complete medium containing RPMI-1640 + 10% FBS + 1% PS. NCI-H1975, a KRAS wild-type human lung cancer cell strain whose cell proliferation […], was cultured in a complete medium containing RPMI-1640 + 10% FBS + 1% PS.
The cells were digested with trypsin (containing EDTA), collected in their respective low-serum complete media containing 2% FBS (for MIA Paca-2 cell culture: DMEM + 2% FBS + 0.5% Horse serum + 1% PS), and counted. After the cell density was adjusted as required, MIA PaCa-2 cells (200 cells/well), AsPC-1 cells (800 cells/well), NCI-H441 cells (800 cells/well), or NCI-H1975 cells (400 cells/well) were seeded into a 384-well cell culture plate, with the volume of the medium in each well being 45 µL. The cell culture plate was incubated in an incubator at 37 °C with 5% CO2 overnight. A series of 3.16-fold gradient dilutions of a 1000× compound stock solution were prepared with DMSO, and then diluted 100-fold with the complete medium containing 2% FBS described above to give 10× compound stock solutions. On the day after cell seeding, 5 µL of the 10× compound stock solution was added to each cell culture well. As a result, the final concentration of the compound in the cell culture well became 1×, and the DMSO content in the well was 0.1%. In addition to the compound-treated wells described above, cell-containing DMSO control wells (with 5 µL of the complete medium containing 1% DMSO added to each well) and cell-free medium control wells (containing 50 µL of the complete medium with 2% FBS) were also set. The culture plate was incubated in an incubator at 37 °C with 5% CO2 for another 5 days, and then 30 µL of CellTiter-Glo working solution was added to each well. The mixture was well mixed, incubated for 30 min, left to stand at room temperature for 30 min, and then transferred to a white-bottomed, opaque 384-well assay plate at 40 µL/well. The chemiluminescence values (RLU) were measured using a microplate reader, and the cell proliferation inhibition rate for each well was calculated: IR(%) = (RLUDMSO - RLUcompound)/(RLUDMSO - RLUblank) × 100%, where RLUDMSO is the average RLU signal value from the DMSO control well samples, RLUblank is the average RLU signal value from the medium control well samples, and RLUcompound is the RLU signal value from the compound-treated well samples. […]

[2] = test system: p-ERK; test: Cell p-ERK assay (HTRF, Advance ERK phospho-T202/Y204 kit) in NCI-H441 cells; assay type: cell-based; conditions: NCI-H441, human non-small cell lung cancer cell strain, KRAS G12V mutation, 3 h compound incubation
Procedure: AsPC-1 cells were purchased from ATCC, Cat. No. CRL-1682; NCI-H441 cells were purchased from ATCC, Cat. No. HTB-174; RPMI-1640 medium was purchased from Gibco, Cat. No. 11875-093; FBS was purchased from Gibco, Cat. No. 10099-141C; penicillin/streptomycin double-antibiotic solution (PS) was purchased from Gibco, Cat. No. 15140-122; trypsin (containing EDTA) was purchased from Gibco, Cat. No. 25200-072; DMSO was purchased from VWRAMRESCO, Cat. No. 0231-500ML; 96-well cell culture plates were purchased from Corning, Cat. No. 3599; white-bottomed, opaque 96-well plates were purchased from Cisbio, Cat. No. 66PL96025; Advance ERK phospho-T202/Y204 kit was purchased from Cisbio, Cat. No. 64AERPEH; cell counter was purchased from CHEMOMETEC, model: NC-200; microplate reader was purchased from PerkinElmer, model: EnVision.
AsPC-1, a human pancreatic cancer cell strain endogenously containing a KRAS^G12D mutation, was cultured in a complete medium containing RPMI-1640 + 10% FBS + 1% PS. NCI-H441, a human non-small cell lung cancer cell strain endogenously containing a KRAS^G12V mutation, was cultured in a complete medium containing RPMI-1640 + 10% FBS + 1% PS.
The cells were digested with trypsin (containing EDTA), collected in their corresponding complete media, and counted. The density of the cell suspensions was adjusted with their corresponding complete media, and AsPC-1 cells (10000 cells/well) or NCI-H441 cells (20000 cells/well) were seeded into a 96-well cell culture plate, with the volume of the medium in each well being 80 µL. The cell culture plate was incubated in an incubator at 37 °C with 5% CO2 overnight. A series of 3.16-fold gradient dilutions of a 1000× compound stock solution were prepared with DMSO, and then diluted 200-fold with the complete medium described above to give 5× compound stock solutions. On the day after cell seeding, 20 µL of the 5× compound stock solution was added to each cell culture well. As a result, the final concentration of the compound in the cell culture well became 1×, and the DMSO content in the well was 0.1%. In addition to the compound-treated wells described above, cell-containing DMSO control wells were also set. A complete medium containing 0.5% DMSO was added at 20 µL/well. After the mixture was well mixed, the culture plate was incubated in the incubator at 37 °C with 5% CO2 for another 3 h. The medium was then removed from the culture wells, and 50 µL of cell lysis buffer (from Advance ERK phospho-T202/Y204 kit) was added to each well. The mixture was well mixed, incubated for 30 min, and then transferred to a white-bottomed, opaque 96-well assay plate at 16 µL/well, and separately, 16 µL of cell lysis buffer was added to additional wells (serving as blank wells) in the assay plate. After the transfer was completed, 4 µL of p-ERK HTRF antibody mixture (from Advance ERK phospho-T202/Y204 kit) was added to each well of the assay plate, followed by a 4-hour incubation. The HTRF signal values (RLU) were then measured using a microplate reader, and the inhibition rate of the compound against p-ERK levels was calculated as follows: IR(%) = (RLUDMSO - RLUcompound)/(RLUDMSO - RLUblank) × 100%, where RLUDMSO is the average HTRF signal value from the DMSO control well samples, RLU is the average HTRF signal value from the blank well samples, and RLUcompound is the HTRF signal value from the compound-treated well samples. Using an XLfit software, the IR(%) values were plotted against the logarithm of the compound concentrations, and the dose-response curves were fitted using the four-parameter method to calculate the IC50 values.

IC50 ([1]; Homo sapiens, NCI-H441, 120 h) | IC50 ([2]; Homo sapiens, NCI-H441, 3 h) | IC50 [2] | Compound | IC50 [1]
196 nM | 126 nM |  | CCn1nc2c(c1-c1cc(C#CCN3CCS(=O)(=O)CC3)cnc1[C@H](C)OC)CC(C)(C)COC(=O)[C@@H]1CCCN(N1)C(=O)[C@@H](NC(=O)[C@@H](NC)C(C)C)Cc1nc(cs1)/C=C/2 (atropisomer, axis not shown; (Ra)) [Compound Z56, (2S)-N-((4^2Z,8^3S,2E,6S)-1^5-(Ra)-(5-(3-(1,1-dioxidothiomorpholino)prop-1-yn-1-yl)-2-((S)-1-methoxyethyl)pyridin-3-yl)-1^1-ethyl-12,12-dimethyl-7,9-dioxo-8^1,8^2,8^3,8^4,8^5,8^6-hexahydro-1^1H-10-oxa-4(4,2)-thiazola-8(1,3)-pyridazina-1(3,4)-pyrrolacyclotridecaphan-2-en-6-yl)-3-methyl-2-(methylamino)butanamide] | 
176 nM | 168 nM |  | CCn1nc2c(c1-c1cc(C#CCN3CCS(=O)(=O)CC3)cnc1[C@H](C)OC)CC(C)(C)COC(=O)[C@@H]1CCCN(N1)C(=O)[C@@H](NC(=O)[C@@H](OCc1ccccc1)C(C)C)Cc1nc(cs1)/C=C/2 (atropisomer, axis not shown; (Ra)) [Compound Z46, (2S)-2-(benzyloxy)-N-((4^2Z,8^3S,2E,6S)-1^5-(Ra)-(5-(3-(1,1-dioxidothiomorpholino)prop-1-yn-1-yl)-2-((S)-1-methoxyethyl)pyridin-3-yl)-1^1-ethyl-12,12-dimethyl-7,9-dioxo-8^1,8^2,8^3,8^4,8^5,8^6-hexahydro-1^1H-10-oxa-4(4,2)-thiazola-8(1,3)-pyridazina-1(3,4)-pyrrolacyclotridecaphan-2-en-6-yl)-3-methylbutanamide] | 
3.46 nM | 3.02 nM |  | CCn1nc2c(c1-c1cc(C#CCN3CCS(=O)(=O)CC3)cnc1[C@H](C)OC)CC(C)(C)COC(=O)[C@@H]1CCCN(N1)C(=O)[C@@H](NC(=O)[C@H](C(C)C)N(C)c1ccccc1)Cc1nc(cs1)/C=C/2 (atropisomer, axis not shown; (Ra)) [Compound Z51, (2S)-N-((4^2Z,8^3S,2E,6S)-(Ra)-1^5-(5-(3-(1,1-dioxidothiomorpholine)prop-1-yn-1-yl)-2-((S)-1-methoxyethyl)pyridin-3-yl)-1^1-ethyl-12,12-dimethyl-7,9-dioxo-8^1,8^2,8^3,8^4,8^5,8^6-hexahydro-1^1H-10-oxa-4(4,2)-thiazola-8(1,3)-pyridazina-1(3,4)-pyrazolecyclotridec-2-en-6-yl)-3-methyl-2-(methyl(phenyl)amino)butanamide] | 

The next lines start with the compound.

Compound | IC50 ([1]; Homo sapiens, NCI-H441, 120 h) | IC50 ([2]; Homo sapiens, NCI-H441, 3 h) | IC50 [2] | IC50 [1]
CCn1nc2c(c1-c1cc(C#CCN3CCS(=O)(=O)CC3)cnc1C(C)OC)CC(C)(C)COC(=O)C1CCCN(N1)C(=O)C(NC(=O)C(C(C)C)N(C)C(=O)Cn1ccc3ccccc31)Cc1nc(cs1)C=C2 (single isomer, unassigned) [Compound Z54-1] | 240 nM | 150 nM |  | 
(2R)-N-((4^2Z,8^3S,2E,6S)-(Ra)-1^5-(5-(3-(1,1-dioxothiomorpholino)prop-1-yn-1-yl)-2-((S)-1-methoxyethyl)pyridin-3-yl)-1^1-ethyl-12,12-dimethyl-7,9-dioxo-8^1,8^2,8^3,8^4,8^5,8^6-hexahydro-1^1H-10-oxo-4(4,2)-thiazola-8(1,3)-pyridazina-1(3,4)-pyrrolacyclotridecaphan-2-en-6-yl)-3-methyl-2-(N-methyl-2-phenylacetamido)butanamide [Compound Z47-2] |  |  | 17.3 nM | 37.6 nM
CCn1nc2c(c1-c1cc(C#CCN3CCS(=O)(=O)CC3)cnc1C(C)OC)CC(C)(C)COC(=O)C1CCCN(N1)C(=O)C(NC(=O)C(C)Cc1ccnc(NC)c1)Cc1nc(cs1)C=C2 (single isomer, unassigned) [Compound Z52-1] |  | 52.3 nM |  | 76.5 nM
